Measurements reported in patent US20080293699A1, “Inhibitors of thapsigargin-induced cell death” (priority 2007, published 2008).
Entries after “also recorded” stand apart in the source; their conditions may differ.

Tests used:
CSM14.1 cells = assay: Pathway selectivity: cell death induced by VP16, TNF plus cycloheximide or staurosporine in CSM14.1 cells; format: cell-based, rat; settings: 25 μM, ATP content where stated
Method: The selectivity of compounds with respect to suppression of cell death induced by ER stress was determined by treating undifferentiated CSM14.1 cells with a variety of agents that induce apoptosis via the ER stress pathway (thapsigargin, tunicamycin), the mitochondrial pathway (VP16) or the death receptor pathway (TNF+cycloheximide [CHX]). Of the 26 hit compounds tested, 19 reduced cell death induced by thapsigargin and tunicamycin but not VP16 or TNF/CHX.
For the experiments shown in FIG. 18, undifferentiated CSM 14.1 cells were plated at 3,000 cells per well in 96-well plates (for the ATP assay) or at 1×10^4 cells per well in 24-well plates (for flow cytometry). The next day, cells were treated with DMSO (0.5%) or hit compounds 25 μM of a compound with 0.5% DMSO final concentration) for two hours, followed by treatment with various cell death-inducing reagents, including 15 μM Thapsigargin (TG) for 24 hrs, 10 μg/mL tunicamycin (TU) for 72 hrs, 2.5 μM staurosporine (STS) for 24 hrs, 50 μM VP16 for 48 hrs, or 30 ng/mL TNF plus 10 μg/mL cyclohexamide (CHX) for 24 hrs. Cellular ATP content was measured for staurosporine samples and TNF/CHX samples, normalizing data relative to cells treated with DMSO alone (the control) and presenting as a percentage of control. For measuring cell death resulting from treatment with tunicamycin and VP16, flow cytometry was used. All assays were performed in triplicate (mean ±SD).

Jurkat human T-leukemia = assay: Thapsigargin-induced death of Jurkat cells, ATP content assay; format: cell-based; settings: 25 μM
Method: To explore whether compounds broadly protect cells of various lineages versus only neuronal cells, we tested all 26 hits for ability to rescue CSM14.1 (neuronal), and Jurkat (lymphoid), cell lines from cell death induced by TG. […] CSM 14.1 (FIG. 15, left) and Jurkat cells (FIG. 15, right) were cultured overnight at 3,000 cells per well or at 30,000 cells per well, respectively, in 96-well plates. Wells received DMSO alone or 25 μM compounds in DMSO, followed by treatment with or without TG (15 μM). After culturing for 24 hrs, ATP content was determined, expressing data as a percentage control relative to cells treated only with DMSO (mean ±SD; n=3). The data reveal that one of the compounds protects CSM14.1 but not Jurkat cells from TG-induced cell death (as measured by the ATPlite assay). […]
In addition to CSM14.1 cells, when tested at 25 μM, Compound 5962123 protected by >50% against thapsigargin-induced death of several tumor cell lines (HeLa human cervical cancer, SW1 melanoma cell, PPC1, human prostate cancer), mouse neural stem cell C17.2 (both differentiated [neuronal phenotype] and non-differentiated [stem cell phenotype]) as determined by ATP content assay, and primary rat cortical neurons as determined by microscopy assay measuring the percentage of NeuN-immunopositive cells with either normal or apoptotic nuclear morphology (Hoechst dye staining). […]

Q: `CCN(CC)c1ccc(C2Nc3ccccc3NC3=C2C(=O)CC(c2ccccc2)C3)cc1` (stereo not shown) [Compound 5962123, 6-(4-diethylaminophenyl)-9-phenyl-5,6,8,9,10,11-hexahydrobenzo[c][1,5]benzodiazepin-7-one] was tested. Which “Inhibition of cell death induced by TNF-α plus cycloheximide” value (CSM14.1 cells) did it give?
A: Its value is “does not inhibit; also recorded: not active”.

Q: And the “Inhibition of cell death induced by VP-16” value (CSM14.1 cells)?
A: The value was “does not inhibit; also recorded: not active”.

Q: And the “Inhibition of cell death induced by staurosporine” value (CSM14.1 cells)?
A: The value was “does not inhibit; also recorded: not active”.

Q: What about the “Protection of Jurkat cells from thapsigargin-induced cell death” value (Jurkat human T-leukemia) of the same molecule?
A: Its value is “does not protect; also recorded: inactive”.
